Data published in patent publication US20250066323A1, “INHIBITORS OF HUMAN RESPIRATORY SYNCYTIAL VIRUS AND METAPNEUMOVIRUS” (priority 2023, published 2025).
Read-outs that look alike come from different tables or passages of the source.

What was measured:
RSV-A2-GFP = RSV-A2-GFP viral replication assay; assay type: cell-based, Human Respiratory Syncytial Virus
Text: GFP sequence was derived from pJTI™ R4 Dest CMV N-EmGFP pA Vector (Invitrogen) and was cloned into the intergenic sequence between wild-type RSV-A2 P and M genes using standard recombineering techniques. Recombinant RSV-A2-GFP was propagated in Hep2 cells (human cells contains HeLa marker chromosomes and were derived via HeLa contamination, ATCC CCL-23) with infection Multiplicity of Infection (MOI) of 0.1. Virus was harvested 3 days after infection by collecting all culture material and freeze-thaw the viral culture in liquid nitrogen for at least 5 times. To generating virus working stocks, thaw frozen samples in 37° C. water bath then centrifuge at 218 g for 15 min at 4° C. Add 1/10 of 10×SPG (Biological Industries 06-3061-01-5A), mix, aliquot supernatant, and quick-freeze in liquid nitrogen then transfer to −80° C. freezer for storage. Virus titer was determined by automated plaque assay in HEp-2 cells following methods described previously (Wen Z. et al.; J Virol Methods. 2019 January; 263:88-95).
Calu-1 cells (human lung epidermoid carcinoma, ATCC HTB-54) assay ready freezedown (ARF generation described separately) were used in assays. Compound plates were prepared by dispensing compounds dissolved in DMSO into wells of 384 well coming 3985 polystyrene flat clear bottom optical imaging microplates (202.5 nL/well) using an ECHO acoustic dispenser. Each compound was tested in a 10-point serial 3-fold dilution (typical final concentrations: 403 nM-0.02 nM and 40.3 nM-0.002 nM). […] To set up the assay, thaw ARF vial(s) in 37° C. water bath until small ice crystal remain and resuspend into assay media (DMEM containing 2% FBS, 100 U/ml Penicillin-Streptomycin). Count cells using default parameters on ViCell and dilute to 20,000 cells per ml in assay media. Add RSV GFP to cells at 24,000 pfu/ml (MOI=1.2). Mix by gentle inversion. 10 μl/well of 100% DMSO was dispensed to CellTiter-Glo (CTG) assay Max_E controls wells. Dispense cells at 50 μl/well using Bravo and 50 μl filtered tips into compound plates. Cover plates with MicroClime lids loaded with 7.5 ml of assay media to minimize evaporation. Incubate at 37 degrees C. and 5% CO2 for 96 hrs. Following incubation, distinct, GFP-expressing cells are counted using an Acumen imaging system with appropriate settings. A same-well CTG assay is performed by adding 10 μl/well reconstituted CellTiter-Glo reagent (Promega G7573) and reading plates on PerkinElmer Envision according to manufacturer's instructions. Raw data were loaded and analyzed in ActivityBase. Antiviral IC50 and cytotoxicity CC50 values were determined using a 4 parameter logistic fit based on the Levenberg-Marquardt algorithm. Model: 205-4 Parameter Logistic.
Calu-1 cells were purchased from ATCC (Cat #HTB-54) and are expanded in growth media (DMEM containing 10% FBS, 100 U/ml Penicillin-Streptomycin). To make ARF, remove and discard cell culture media, briefly rinse the cell layer with PBS to remove all traces of serum. Add 2.5 ml of TrypLE Express solution and incubate until cells dislodge, then add growth media and resuspend the cells by gentle pipetting. Count cells for concentration and determine viability using a ViCell. Centrifuge at RT, 300 g for 5 min to pellet cells. Gently aspirate supernatant, flick pellet to loosen cells. Resuspend cells in an appropriate volume of freezing medium (DMEM containing 10% DMSO, 10% FBS, 100 U/ml Penicillin-Streptomycin) to achieve 5×10^6/ml. Transfer 1 ml of cell suspension to freezing vials. Put vials to CoolCell cryopreservation container and place CoolCell container upright in a −80° C. freezer overnight before transferring vials to liquid nitrogen vapor for storage.

hMPV-GFP = hMPV-GFP viral replication assay; assay type: cell-based, human metapneumovirus; details: read-out: hMPV EC50
Experimental: GFP expressing rgHMPV #3 p3 was generated in Dr. Buchholz's lab (Biacchesi S. et al., J Virol. 2007 June; 81(11): 6057-6067.) and propagated in VERO cells (kidney tissue derived from a normal, adult African green monkey. ATCC Cat #CCL-81) with infection Multiplicity of Infection (MOI) of 0.1. Virus was harvested 4 days after infection by collecting all culture material and freeze-thaw the viral culture in liquid nitrogen twice. To generating virus working stocks, thaw frozen samples in 37° C. water bath then centrifuge at 218 g for 15 min at 4° C. Add 1/10 of 10×SPG (Biological Industries 06-3061-01-5A), mix, aliquot supernatant, and quick-freeze in liquid nitrogen then transfer to −80° C. freezer for storage. Virus titer was determined by performing titration test in 96-well plates and calculate approximate virus titer using GFP event/well data.
Compound plates were prepared by dispensing compounds dissolved in DMSO into wells of 384 well coming 3985 polystyrene flat clear bottom optical imaging microplates (202.5 nL/well) using an ECHO acoustic dispenser. Each compound was tested in a 10-point serial 3-fold dilution (typical final concentrations: 40,300 nM-2 nM). […] Continuous culture of VERO cells were maintained in complete culture media (OptiMEM supplemented with 2 mM GlutaMAX™ and 100 U/ml Penicillin-Streptomycin). To set up the assay, trypsinize VERO cells with 0.25% Trypsin-EDTA until cells dislodge, then re-suspend cells with 1 mL FBS. Spin down cells at 300 g for 5 min and wash cells twice in culture media, then count cells using default parameters on ViCell. Cells were then diluted to 100,000 cells/ml (5,000 cells/50 μl) in complete culture media+TrypLE Select (80 μl/ml). Add hMPV-GFP virus to cells at 125,000 pfu/ml (MOI=1.25). Mix by gentle inversion. 10 μl/well of 100% DMSO was dispensed to CellTiter-Glo (CTG) assay Max_E controls wells. Dispense cells at 50 μl/well using Bravo and 50 μl filtered tips into compound plates. Cover plates with MicroClime lids loaded with 7.5 ml of assay media to minimize evaporation. Lightly shake plate for 10 minutes at room temperature then incubate at 37 degrees C. and 5% CO2 for 48 hrs. Following incubation, distinct, GFP-expressing cells are counted using an Acumen imaging system with appropriate settings. A same-well CTG assay is performed by adding 10 μl/well reconstituted CellTiter-Glo reagent (Promega G7573) and reading plates on PerkinElmer Envision according to manufacturer's instructions. Raw data were loaded and analyzed in ActivityBase. Antiviral IC50 and cytotoxicity CC50 values were determined using a 4 parameter logistic fit based on the Levenberg-Marquardt algorithm. Model: 205-4 Parameter Logistic.

[1] = human respiratory syncytial virus, Calu-1, 96 h, read-out: RSV EC50, Calu-1 cells, RSV-A2-GFP MOI=1.2, 96 hrs, GFP-expressing cells counted
[2] = human metapneumovirus, Vero, 48 h
[3] = read-out: RSV EC50, Calu-1 cells, RSV-A2-GFP MOI=1.2, 96 hrs, GFP-expressing cells counted
[4] = VERO cells, hMPV-GFP MOI=1.25, 48 hrs, GFP-expressing cells counted

Row | SMILES | EC50 (RSV-A2-GFP; [1]) | EC50 (hMPV-GFP; [2]) | EC50 (RSV-A2-GFP; [3]) | EC50 (hMPV-GFP; [4])
1 | Cn1nc(-c2cscn2)cc1C(=O)NCC(C)(O)c1cc(C(C)(C)N)cc(-n2ccc3c(F)cccc32)n1 (single isomer, unassigned) [Example 12-B] | < 10 nM | > 100 nM | – | –
2 | Cn1nc(-c2cscn2)cc1C(=O)NCC(C)(O)c1cc(C(C)(C)N)cc(-c2ccc(Cl)cc2)n1 (single isomer, unassigned) [Example 13-B] | < 10 nM | > 100 nM | – | –
3 | Cc1ccc(-c2cc(C(C)(C)N)cc(C(C)(O)CNC(=O)c3cc(-c4cscn4)nn3C)n2)cc1 (single isomer, unassigned) [Example 14-B] | < 10 nM | > 100 nM | – | –
4 | Cn1nc(-c2cscn2)cc1C(=O)NCC(C)(O)c1cc(C(C)(C)N)cc(-c2ccc(F)c(F)c2)n1 (single isomer, unassigned) [Example 15-B] | < 10 nM | > 100 nM | – | –
5 | Cn1nc(-c2cscn2)cc1C(=O)NCC(C)(O)c1cc(C(C)(C)N)cc(-c2ccc(F)c(Cl)c2)n1 (single isomer, unassigned) [Example 16-B] | < 10 nM | > 100 nM | – | –
6 | Cn1nc(-c2cscn2)cc1C(=O)NCC(C)(O)c1cc(C(C)(C)N)cc(-c2ccc(Cl)c(F)c2)n1 (single isomer, unassigned) [Example 17-B] | < 10 nM | > 100 nM | – | –
7 | Cn1nc(-c2cscn2)cc1C(=O)NCC(C)(O)c1cc(C(C)(C)N)cc(-c2ccc(F)cc2F)n1 (single isomer, unassigned) [Example 18-B] | < 10 nM | > 100 nM | – | –
8 | Cc1cc(F)ccc1-c1cc(C(C)(C)N)cc(C(C)(O)CNC(=O)c2cc(-c3cscn3)nn2C)n1 (single isomer, unassigned) [Example 19-B] | < 10 nM | > 100 nM | – | –
9 | Cn1nc(-c2cscn2)cc1C(=O)NCC(C)(O)c1cc(C(C)(C)N)cc(-c2ccc(F)c(F)c2F)n1 (single isomer, unassigned) [Example 20-B] | < 10 nM | > 100 nM | – | –
10 | CCC(O)(CNC(=O)c1cc(-c2cscn2)nn1C)c1cc(C(C)(C)N)cc(-c2ccc(F)cc2)n1 (single isomer, unassigned) [Example 21-A] | < 10 nM | > 100 nM | – | –
11 | CCC(O)(CNC(=O)c1cc(-c2cscn2)nn1C)c1cc(C(C)(C)N)cc(-c2ccc(F)cc2)n1 (single isomer, unassigned) [Example 21-B] | – | – | 10 to 100 nM | > 100 nM
12 | Cc1nc(-c2ncccn2)sc1C(=O)NCC(O)(c1cc(C(C)(C)N)cc(-c2ccc(F)cc2)n1)C1CC1 (single isomer, unassigned) [Example 22-A] | – | > 100 nM | > 100 nM | –
13 | Cc1nc(-c2ncccn2)sc1C(=O)NCC(O)(c1cc(C(C)(C)N)cc(-c2ccc(F)cc2)n1)C1CC1 (single isomer, unassigned) [Example 22-B] | – | – | < 10 nM | > 100 nM
14 | Cn1nc(-c2cscn2)cc1C(=O)NCC(O)(c1cc(C(C)(C)N)cc(-c2ccc(F)cc2)n1)C1CC1 (single isomer, unassigned) [Example 23-B] | < 10 nM | > 100 nM | – | –
15 | Cn1nc(-c2cscn2)cc1C(=O)NCC(O)(c1cc(C(C)(C)N)cc(-c2ccc(F)cc2)n1)C(F)F (single isomer, unassigned) [Example 24-A] | < 10 nM | > 100 nM | – | –
16 | Cn1nc(-c2cscn2)cc1C(=O)NCC(O)(c1cc(C(C)(C)N)cc(-c2ccc(F)cc2)n1)C(F)F (single isomer, unassigned) [Example 24-B] | – | – | 10 to 100 nM | > 100 nM
17 | Cc1nc(-c2ncccn2)sc1C(=O)NCC(O)(c1cc(C(C)(C)N)cc(-c2ccc(F)cc2)n1)C(F)(F)F (single isomer, unassigned) [Example 25-A] | – | > 100 nM | 10 to 100 nM | –
18 | Cc1nc(-c2ncccn2)sc1C(=O)NCC(O)(c1cc(C(C)(C)N)cc(-c2ccc(F)cc2)n1)C(F)(F)F (single isomer, unassigned) [Example 25-B] | – | – | > 100 nM | > 100 nM
19 | Cn1nc(-c2cscn2)cc1C(=O)NCC(O)(c1cc(C(C)(C)N)cc(-c2ccc(F)cc2)n1)C(F)(F)F (single isomer, unassigned) [Example 26-A] | < 10 nM | > 100 nM | – | –
20 | Cn1nc(-c2cscn2)cc1C(=O)NCC(C)(O)c1cc(C2(C)CCNC2)cc(-c2ccc(F)cc2)n1 (single isomer, unassigned) [Example 27-A] | – | > 100 nM | > 100 nM | –
21 | Cn1nc(-c2cscn2)cc1C(=O)NCC(C)(O)c1cc(C2(C)CCNC2)cc(-c2ccc(F)cc2)n1 (single isomer, unassigned) [Example 27-B] | – | – | > 100 nM | > 100 nM
22 | Cn1nc(-c2cscn2)cc1C(=O)NCC(C)(O)c1cc(C2(C)CCNC2)cc(-c2ccc(F)cc2)n1 (single isomer, unassigned) [Example 27-C] | – | – | < 10 nM | > 100 nM
23 | Cn1nc(-c2cscn2)cc1C(=O)NCC(C)(O)c1cc(C2(C)CCNC2)cc(-c2ccc(F)cc2)n1 (single isomer, unassigned) [Example 27-D] | – | – | < 10 nM | > 100 nM
24 | Cn1nc(-c2cscn2)cc1C(=O)NCC(C)(O)c1cc2c(c(-c3ccc(F)cc3)n1)OCC2(C)N (single isomer, unassigned) [Example 28-A] | – | > 100 nM | < 10 nM | –
25 | Cn1nc(-c2cscn2)cc1C(=O)NCC(C)(O)c1cc2c(c(-c3ccc(F)cc3)n1)OCC2(C)N (single isomer, unassigned) [Example 28-B] | – | – | 10 to 100 nM | > 100 nM
26 | Cn1nc(-c2cscn2)cc1C(=O)NCC(C)(O)c1cc2c(c(-c3ccc(F)cc3)n1)OCC2(C)N (single isomer, unassigned) [Example 28-C] | – | – | > 100 nM | > 100 nM
